Experimental data taken from patent US8946507B2, “Method of selectively producing male or female sterile plants” (priority 2002, dated 2015).

Columns and labels:
[1] = tested on: Nicotiana tabacum var. Samsun (transgenic, D-amino acid oxidase under female floral promoter); experiment: Conditional female sterility of transgenic tobacco expressing D-amino acid oxidase in female floral tissue, treated with D-amino acids; type: in vivo; details: for seed production after treatment: foliar spray usually 0.25-20 kg/ha, root drench or 10-200 mM solution into buds, prior to or during early flower formation; for viable pollen production after treatment: same treatment conditions as for seed production
Description: Tobacco leaf discs are transformed with the recombinant binary vectors using methods similar to those described in Horsch et al (1985) Science, 227, 1229-1231 Many variations of the method may be used. The binary vector can be transformed into, for example, Agrobacterium tumefaciens strain LBA 4404 using the freeze thaw method of transformation. Tobacco transformation and whole plant regeneration is performed using Nicotiana tabacum var. Samsun according to protocols described by Draper et al (Plant Genetic Transformation, Blackwell Sci. Pub. 1989). Transformation events are selected on MS-media containing kanamycin or other suitable antibiotic. The presence of integrated transgenes is confirmed by PCR. Plants are regenerated and allowed to reach maturity and selfed on to produce seed. Northern and/or Western analysis is used to confirm tissue-specific expression of the D-amino acid oxidase genes. […] Seeds of the T1 generation are planted out. Once plantlets have grown to a sufficient size they are tested by PCR for the presence of transgene. PCR positive plants are transferred to the greenhouse. […] A subset of these (putatively) conditionally sterile plants are treated with D-phosphinothricin or D-alanine or D leucine or D asparagine or D methionine or D-aspartate or D-glutamate in various amounts and at varying growth stages. […] For example these amino acids are pure D enantiomers or, alternatively, are DL racemates. For example, they are applied as a foliar spray, prior to or during the early stages of flower formation, at rates usually between 0.25 and 20 kg/ha. Amino acids which may crystallise out of solution on the leaves following foliar application may be redissolved and remobilised for leaf uptake by further applications of water as a spray mist. Amino acids are, for example, also applied as a root drench and optionally, further applied as ˜50 ul of a 10-200 mM solution flooded directly into the buds of emerging florets. Pollen from the treated plants is collected and viability is tested. […] Control plants are both transgenic and non-transgenic and are grown under identical conditions and under an identical regime of physical treatments except that treatment solutions are either water or an equivalent concentration of pure L-amino acid.

[2] = tested on: mutant forms of R. gracilis D amino acid oxidase; experiment: Oxygen electrode assay, control experiments with pure enantiomers; type: biochemical, Rhodotorula gracilis; details: rate relative to DL phosphinothricin, depending on concentration
Description: Approximately 7 g wet weight of cells is washed in water. The cells are resuspended in an equal volume of 50 mM/Mops/KOH buffer at pH 7.0 containing 2 mM EDTA, 2 mM DTT and 0.01 mM FAD. Cells are evenly suspended using a glass homogeniser and then disrupted using a one shot head in the Constant Systems (BudBrooke Rd, Warwick U.K.) Basic Z cell disrupter at 13500 psi. The crude extract is kept cold (˜4° C.) centrifuged at 30,000 gav for 1 h and the pellet discarded. Some of the extract protein is run out on an SDS PAGE gel stained with Coomassie Blue and, through side by side comparison with similarly prepared extracts of cells containing only ‘empty’ pET vector it is estimated that 2-50% of the total soluble protein in the extract is D-amino acid oxidase. Some of the extract protein is exchanged into 50 mM Mops/KOH buffer at pH 7.0 containing 0.01 mM FAD. This is diluted with the same buffer in a standard oxygen electrode cell (calibrated at 25° C. between zero and a saturated concentration of oxygen). Optionally, the D-amino acid oxiadse is further purified using ion-exchange, phenyl sepharose, fractional ammonium sulphate precipitation and gel filtration. Assays, at 25° C., are started by addition of a 200 mM solution of the ammonium salt of DL phosphinothricin to the diluted enzyme. […] Rates of oxygen consumption (after substraction of any drift in the bases line) are measured. […]

[3] = tested on: Nicotiana tabacum (transgenic, stig 1 D-amino acid oxidase and plastocyanin/PAT); experiment: Transgenic tobacco (stig1 D-amino acid oxidase M213R plus plastocyanin promoter PAT) sprayed with DL phosphinothricin; type: in vivo
Text: In one variant of the method, the amino acid applied is racemic DL phosphinothricin. In this case, the DNA construct used for transformation comprises, in addition to the DNA sequence encoding a D-amino acid oxidase under operable expression control of a tissue specific female floral promoter region such as ‘stig 1’, also a DNA sequence (EMBL: A02774) a ‘PAT’ gene under operable control of a promoter region such as the region 5′ of the translational start of the plastocyanin gene of the Pisum sativum plastocyanin gene (EMBL accession number X16082). For example, the construct is the same as depicted in FIG. 1 except that the DNA sequence encoding D-amino acid oxidase is site-specifically mutated so that the M213R form of the enzyme is encoded. The plastocyanin promoter region provides for preferential expression in the green tissues of the plant. […] Thus, in this variant of the example, the non-phytotoxic substance D phosphinothricin is applied in its least costly and most readily available form as the commercial herbicide DL phosphinothricin racemate.

[4] = tested on: wheat containing a PAT gene under barley plastocyanin promoter region; experiment: Reproductive tolerance of wheat containing PAT gene under barley plastocyanin promoter to DL phosphinothricin; type: in vivo; details: rates up of at least 2 kg/ha
Text: The current invention provides a method of overcoming the problem of enabling the use of a cheap commercial herbicide, DL phosphinothricin, as both weed control and hybridising agent in the production of hybrid cereals and which method, furthermore, provides resultant hybrid cereals or rice in which DL phosphinothricin (or L phosphinothricin) can be safely used for weed control without substantial loss of yield. As a yet further benefit, selfed seed from the F1 generation which may later arise as volunteers in subsequent crops will be easier to manage since they, themselves, will generally be sterile if sprayed with controlling amounts of DL phosphinothricin. The same will hold for the progeny of pollen outcrossing from the F1 plants to weeds (e.g. red rice) or other cereals. The current invention provides genes and enzymes that convert a non-phytotoxic component, D-phosphinothricin, of a commercial herbicide formulation DL phosphinothricin, into the active L form. The PAT gene which converts L-phosphinothricin to N-acetyl L-phosphinithricin is known already and is used commercially to provide tolerance to DL phosphinothricin in crops. […]

[5] = tested on: tobacco plants (transgenic, TA 29 D-amino acid oxidase and plastocyanin/PAT); experiment: Transgenic tobacco (TA 29 D-amino acid oxidase plus plastocyanin promoter PAT) sprayed with DL phosphinothricin; type: in vivo; details: spray, rates between 250 g/ha and 5 kg/ha
Text: Analagous to example 1, in one variant of the example, the amino acid applied is racemic DL phosphinothricin. In this case the DNA construct used for transformation comprises, in addition to the DNA sequence encoding a D-amino acid oxidase under operable expression control of a tissue specific male floral promoter region such as ‘TA 29’, also a DNA sequence encoding a phosphinothricin N-acetyl transferase gene such as the ‘PAT’ gene under operable control of a promoter region such as that from the plastocyanin gene (in this case the region from the Pisum sativum plastocyanin gene).

[6] = target: T1, M213R (arginine replacement for methionine) mutant form of R. gracilis D amino acid oxidase (Rhodotorula toruloides, UniProt P80324, M213R); experiment: Oxygen electrode assay of D-amino acid oxidase activity, M213R mutant, crude E. coli extract; type: biochemical; details: 25° C., 50 mM Mops/KOH pH 7.0, 0.01 mM FAD; ammonium salt of DL phosphinothricin; estimated enzyme purity in extract 35+/-15% of total protein
T1 construct: made in house; host or cells: E. coli BL21 DE3 (Novagen pET 24A, T7 promoter)
Text: (§1) Additionally a series of particular DNA sequences encoding particularly targeted D-amino acid oxidase enzymes are generated. In particular, genes encoding Rhodotorula gracilis D amino acid oxidase with an arginine, serine, cysteine, lysine, asparagine or alanine replacing the methionine at position 213 and/or a histidine, serine, cysteine, asparagine or alanine replacing the tyrosine at position 238. The methods used are the same as described above except that, rather than a mixture of oligonucleotides, individual oligonucleotide pairs are designed and used to effect each single or double amino acid change. Each resulting mutant D-amino acid oxidase coding sequence is cloned for (untagged) expression behind the T7 promoter in Novagen pET 24A and transformed into E. coli BL21 DE3. The cells are grown in a 1.0 l fermenter in LCM50 medium supplemented with 100 ug/ml kanamycin, induced for expression with 1 mM IPTG and harvested by low-speed centrifugation.
(§2) Approximately 7 g wet weight of cells is washed in water. The cells are resuspended in an equal volume of 50 mM/Mops/KOH buffer at pH 7.0 containing 2 mM EDTA, 2 mM DTT and 0.01 mM FAD. […] Rates of oxygen consumption (after substraction of any drift in the bases line) are measured. […]

[7] = target: T2, M213S (serine replacement for methionine) mutant form of R. gracilis D amino acid oxidase (Rhodotorula toruloides, UniProt P80324, M213S); experiment: Oxygen electrode assay of D-amino acid oxidase activity, M213S mutant, crude E. coli extract; type: biochemical; details: 25° C., 50 mM Mops/KOH pH 7.0, 0.01 mM FAD; ammonium salt of DL phosphinothricin; estimated enzyme purity in extract 35+/-15% of total protein
T2 construct: made in house; host or cells: E. coli BL21 DE3 (Novagen pET 24A, T7 promoter)
Text: as §1, §2

[8] = spray, rates between 250 g/ha and 5 kg/ha

## C[C@@H](N)C(=O)O [D alanine]
[1]
  seed production after treatment: relatively little or no seed
  viable pollen production after treatment: near normal levels of viable pollen

## NC(=O)C[C@@H](N)C(=O)O [D asparagine]
[1]
  seed production after treatment: relatively little or no seed
  viable pollen production after treatment: near normal levels of viable pollen

## N[C@H](CC(=O)O)C(=O)O [D aspartate]
[1]
  seed production after treatment: relatively little or no seed
  viable pollen production after treatment: near normal levels of viable pollen

## N[C@H](CCC(=O)O)C(=O)O [D glutamate]
[1]
  seed production after treatment: relatively little or no seed
  viable pollen production after treatment: near normal levels of viable pollen

## CC(C)C[C@@H](N)C(=O)O [D leucine]
[1]
  seed production after treatment: relatively little or no seed
  viable pollen production after treatment: near normal levels of viable pollen

## CSCC[C@@H](N)C(=O)O [D methionine]
[1]
  seed production after treatment: relatively little or no seed
  viable pollen production after treatment: near normal levels of viable pollen

## CP(=O)(O)CC[C@@H](N)C(=O)O [D-phosphinothricin]
[1]
  seed production after treatment: relatively little or no seed
  viable pollen production after treatment: near normal levels of viable pollen
[2]
  oxidation of pure enantiomer in control experiments: up to twice the rate that the DL is

## CP(=O)(O)CCC(N)C(=O)O (stereo not drawn) [DL phosphinothricin]
[3]; no heterologous D-amino acid oxidase co-expressed in floral tissues
  yield of plastocyanin/PAT plants without D to L converting activity in floral tissues: no significant loss of yield
[3]; rates in excess of 2 kg/ha
  reproductive tolerance to the herbicide of plants with plastocyanin promoter/PAT gene: substantially complete reproductive tolerance
[3]; [8]
  female fertility of treated plants: conditionally female sterile
  male fertility of treated plants: normal or near-normal male fertility
  visible damage of treated plants: not visibly damaged
[4]
  reproductive tolerance to application: substantially reproductively tolerant
[5]
  female fertility of treated plants: normal or near-normal female fertility
  male fertility of treated plants: conditionally male sterile
  visible damage of treated plants: not visibly damaged
[6]
  rate of oxidation (oxygen consumption): ~14 nmol/min/mg of protein of crude extract
[7]
  rate of oxidation (oxygen consumption): ~4 nmol/min/mg of protein of crude extract

## CP(=O)(O)CC[C@H](N)C(=O)O [L-form, L-phosphinothricin, reference compound]
[2]
  oxidation of pure enantiomer in control experiments: not oxidised at all
